Experimental data published in PubChem BioAssay AID743175 (Broad Institute, 2013).
Active and inactive are the calls of the source. No rule for the calls is given here.

Assay: inhibitor activity on non-replicating M. tuberculosis, dose response, plate reader, dry powder (AID 743175)
Details: Mycobacterium tuberculosis non-replicating, growth inhibition plate reader; at 23.5 µM (top of the series)

**Q.** For `Cc1noc(C)c1NC(=O)Nc1ccc2c(c1)C(=O)N(C)[C@H]1CC[C@H](CC(=O)NCc3ccc(Cl)cc3)O[C@H]1CO2`, which activity change, negative = inhibition is on record?
**A.** -5.96% (inactive)

**Q.** Which activity change, negative = inhibition does the source give for `O=C(C[C@@H]1C=C[C@H](NC(=O)Nc2cc(F)ccc2F)[C@H](CO)O1)NCc1ccc2c(c1)OCO2` here?
**A.** -1.22% (inactive)

**Q.** Which activity change, negative = inhibition does the source give for `Cc1noc(C)c1NC(=O)Nc1ccc2c(c1)C(=O)N(C)[C@@H]1CC[C@H](CC(=O)NCc3ccc(Cl)cc3)O[C@H]1CO2` here?
**A.** -0.708% (inactive)

**Q.** With `COCCNC(=O)C[C@@H]1C[C@@H]2c3cc(NC(=O)Nc4ccc(C(F)(F)F)cc4)ccc3O[C@@H]2[C@H](CO)O1` as the molecule, how does the activity change, negative = inhibition read?
**A.** 6.32% (inactive)

**Q.** For `O=C(C[C@@H]1C=C[C@@H](NC(=O)Nc2cc(F)ccc2F)[C@@H](CO)O1)NCc1ccc2c(c1)OCO2`, which activity change, negative = inhibition is on record?
**A.** 2.62% (inactive)

**Q.** With `C[C@@H]1CN([C@@H](C)CO)C(=O)c2ccccc2-c2ccccc2CO[C@H]1CN(C)C(=O)[C@H](C)c1ccccc1` as the molecule, how does the activity change, negative = inhibition read?
**A.** 6.24% (inactive)

Same assay, conditions: Mycobacterium tuberculosis non-replicating, growth inhibition plate reader; at 26 µM (top of the series)

**Q.** Which activity change, negative = inhibition does the source give for `O=C(C[C@H]1C[C@H]2c3cc(NC(=O)c4cccnc4)ccc3O[C@H]2[C@@H](CO)O1)NCC(F)(F)F` here?
**A.** 4.47% (inactive)

**Q.** With `C[C@@H]1CN([C@H](C)CO)C(=O)c2ccccc2-c2ccccc2CO[C@H]1CN(C)C(=O)[C@H](C)c1ccccc1` as the molecule, how does the activity change, negative = inhibition read?
**A.** 3.43% (inactive)

**Q.** For `COCCNC(=O)C[C@H]1C[C@H]2c3cc(NC(=O)Nc4ccc(C(F)(F)F)cc4)ccc3O[C@H]2[C@@H](CO)O1`, which activity change, negative = inhibition is on record?
**A.** 6.87% (inactive)

**Q.** Which activity change, negative = inhibition does the source give for `C[C@H](CO)N1C[C@H](C)[C@@H](CN(C)C(=O)[C@H](C)c2ccccc2)OCc2ccccc2-c2ccccc2C1=O` here?
**A.** 4.38% (inactive)

**Q.** For `COCCNC(=O)C[C@@H]1C[C@H]2c3cc(NC(=O)Nc4ccc(C(F)(F)F)cc4)ccc3O[C@H]2[C@H](CO)O1`, which activity change, negative = inhibition is on record?
**A.** -6% (inactive)

**Q.** With `C[C@H](C(=O)N(C)C[C@H]1OCc2ccccc2-c2ccccc2C(=O)N([C@H](C)CO)C[C@H]1C)c1ccccc1` as the molecule, how does the activity change, negative = inhibition read?
**A.** -2.72% (inactive)

**Q.** With `COCCNC(=O)C[C@@H]1C[C@@H]2c3cc(NC(=O)Nc4ccc(C(F)(F)F)cc4)ccc3O[C@@H]2[C@@H](CO)O1` as the molecule, how does the activity change, negative = inhibition read?
**A.** 9.37% (inactive)

**Q.** With `O=C(C[C@H]1C[C@H]2c3cc(NC(=O)c4cccnc4)ccc3O[C@H]2[C@H](CO)O1)NCC(F)(F)F` as the molecule, how does the activity change, negative = inhibition read?
**A.** 10.5% (inactive)

**Q.** For `C[C@H](CO)N1C[C@H](C)[C@H](CN(C)C(=O)[C@H](C)c2ccccc2)OCc2ccccc2-c2ccccc2C1=O`, which activity change, negative = inhibition is on record?
**A.** -5.31% (inactive)

**Q.** For `C[C@@H](C(=O)N(C)C[C@H]1OCc2ccccc2-c2ccccc2C(=O)N([C@@H](C)CO)C[C@@H]1C)c1ccccc1`, which activity change, negative = inhibition is on record?
**A.** -10.5% (inactive)

**Q.** For `CNC[C@@H]1OCCCC[C@@H](C)Oc2ccc(NC(=O)CCCN(C)C)cc2C(=O)N([C@H](C)CO)C[C@@H]1C`, which activity change, negative = inhibition is on record?
**A.** -5.36% (inactive)

**Q.** Which activity change, negative = inhibition does the source give for `O=C(C[C@H]1C=C[C@H](NC(=O)Nc2cc(F)ccc2F)[C@@H](CO)O1)NCc1ccc2c(c1)OCO2` here?
**A.** -6.29% (inactive)

**Q.** For `C[C@@H](C(=O)N(C)C[C@@H]1OCc2ccccc2-c2ccccc2C(=O)N([C@@H](C)CO)C[C@@H]1C)c1ccccc1`, which activity change, negative = inhibition is on record?
**A.** 3.38% (inactive)

**Q.** With `C[C@H](C(=O)N(C)C[C@@H]1OCc2ccccc2-c2ccccc2C(=O)N([C@@H](C)CO)C[C@@H]1C)c1ccccc1` as the molecule, how does the activity change, negative = inhibition read?
**A.** -3.21% (inactive)

**Q.** With `Cc1noc(C)c1NC(=O)Nc1ccc2c(c1)C(=O)N(C)[C@H]1CC[C@H](CC(=O)NCc3ccc(Cl)cc3)O[C@@H]1CO2` as the molecule, how does the activity change, negative = inhibition read?
**A.** -8.85% (inactive)

**Q.** With `Cc1noc(C)c1NC(=O)Nc1ccc2c(c1)C(=O)N(C)[C@@H]1CC[C@@H](CC(=O)NCc3ccc(Cl)cc3)O[C@@H]1CO2` as the molecule, how does the activity change, negative = inhibition read?
**A.** -1.24% (inactive)

**Q.** With `O=C(C[C@@H]1C=C[C@H](NC(=O)Nc2cc(F)ccc2F)[C@@H](CO)O1)NCc1ccc2c(c1)OCO2` as the molecule, how does the activity change, negative = inhibition read?
**A.** -6.79% (inactive)

Same assay, conditions: Mycobacterium tuberculosis non-replicating, growth inhibition plate reader; at 38 µM (top of the series)

**Q.** With `CCCOC(=O)c1ccc(NC(=O)c2ccc(Br)o2)cc1` as the molecule, how does the activity change, negative = inhibition read?
**A.** -12.8% (inactive)

**Q.** For `CCCC(C)C(=O)Nc1ccc(Cl)cn1` (stereo not given), which activity change, negative = inhibition is on record?
**A.** -14.4% (inactive)
